According to PubChem BioAssay AID248 (DTP/NCI, 2004):
“And” between values parts separate entries of the source, which are not always exact repeats. Identical values can stand only once. Toxic doses and inconclusive results are not listed.

Test system: L1210 leukemia ip in BDF1 mice, survival T/C
Experiment: NCI In Vivo Anticancer Drug Screen. Data for tumor model L1210 Leukemia (intraperitoneal) in B6D2F1 (BDF1) mice
Details: endpoint: mean survival time, higher = longer survival
Method in brief: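 Read-out is survival time, reported as the treated-group measurement over the vehicle-control measurement.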

For `CC(=O)OCC1OC(n2ccc(N)nc2=O)C(OC(C)=O)C1OC(C)=O` (stereo not drawn), which T/C (dose: 6.3 mg/kg/injection, schedule: Q01DX015 (oral), vehicle: carboxymethylcellulose (CMC)) is on record?
Its T/C is 117 % of control.

What about the T/C (dose: 6.6 mg/kg/injection, schedule: Q03HX024 (ip), vehicle: carboxymethylcellulose (CMC)) of the same compound?
The T/C was 156 % of control.

What about the T/C (dose: 10.0 mg/kg/injection, schedule: Q01DX015 (ip), vehicle: saline) of the same compound?
Its T/C is 101 % of control.

What about the T/C (dose: 11.0 mg/kg/injection, schedule: Q03HX008 (ip), vehicle: carboxymethylcellulose (CMC)) of the same compound?
Its T/C is 121 % of control.

What about the T/C (dose: 11.0 mg/kg/injection, schedule: Q03HX024 (ip), vehicle: carboxymethylcellulose (CMC)) of the same compound?
Its T/C is 184 % of control.

And the T/C (dose: 12.5 mg/kg/injection, schedule: Q01DX015 (oral), vehicle: carboxymethylcellulose (CMC))?
Its T/C is 116 % of control.

And the T/C (dose: 15.0 mg/kg/injection, schedule: Q01DX015 (ip), vehicle: saline)?
The T/C was 117 % of control.

And the T/C (dose: 18.0 mg/kg/injection, schedule: Q03HX024 (ip), vehicle: carboxymethylcellulose (CMC))?
The T/C was 207 % of control.

What about the T/C (dose: 23.0 mg/kg/injection, schedule: Q01DX015 (ip), vehicle: saline) of the same compound?
Its T/C is 124 % of control.

What about the T/C (dose: 25.0 mg/kg/injection, schedule: Q01DX015 (oral), vehicle: carboxymethylcellulose (CMC)) of the same compound?
Its T/C is 122 % of control.

And the T/C (dose: 30.0 mg/kg/injection, schedule: Q03HX024 (ip), vehicle: carboxymethylcellulose (CMC))?
Its T/C is 246 % of control.

And the T/C (dose: 35.0 mg/kg/injection, schedule: Q01DX015 (ip), vehicle: saline)?
The T/C was 150 % of control and 168 % of control.

What about the T/C (dose: 37.0 mg/kg/injection, schedule: Q01DX009 (oral), vehicle: water) of the same compound?
Its T/C is 123 % of control.

What about the T/C (dose: 37.0 mg/kg/injection, schedule: Q## X024 (oral), vehicle: water) of the same compound?
The T/C was 100 % of control.

And the T/C (dose: 50.0 mg/kg/injection, schedule: Q01DX009 (ip), vehicle: saline)?
The T/C was 153 % of control.

What about the T/C (dose: 50.0 mg/kg/injection, schedule: Q01DX009 (ip), vehicle: water) of the same compound?
Its T/C is 171 % of control.

And the T/C (dose: 50.0 mg/kg/injection, schedule: Q01DX009 (sc), vehicle: water)?
The T/C was 158 % of control.

What about the T/C (dose: 51.0 mg/kg/injection, schedule: Q01DX009 (ip), vehicle: carboxymethylcellulose (CMC)) of the same compound?
The T/C was 180 % of control.

What about the T/C (dose: 51.0 mg/kg/injection, schedule: Q03HX008 (ip), vehicle: carboxymethylcellulose (CMC)) of the same compound?
Its T/C is 157 % of control.

And the T/C (dose: 55.0 mg/kg/injection, schedule: Q01DX015 (ip), vehicle: saline)?
The T/C was 201 % of control.

What about the T/C (dose: 75.0 mg/kg/injection, schedule: Q01DX005 (oral), vehicle: water) of the same compound?
Its T/C is 121 % of control.

And the T/C (dose: 75.0 mg/kg/injection, schedule: Q01DX009 (oral), vehicle: water)?
Its T/C is 117 % of control.

What about the T/C (dose: 86.0 mg/kg/injection, schedule: Q01DX009 (ip), vehicle: carboxymethylcellulose (CMC)) of the same compound?
Its T/C is 213 % of control.

What about the T/C (dose: 100.0 mg/kg/injection, schedule: Q01DX005 (ip), vehicle: saline) of the same compound?
The T/C was 154 % of control and 164 % of control.

And the T/C (dose: 100.0 mg/kg/injection, schedule: Q01DX009 (ip), vehicle: saline)?
Its T/C is 222 % of control.

What about the T/C (dose: 100.0 mg/kg/injection, schedule: Q01DX009 (ip), vehicle: water) of the same compound?
The T/C was 235 % of control.

What about the T/C (dose: 100.0 mg/kg/injection, schedule: Q01DX009 (sc), vehicle: water) of the same compound?
The T/C was 205 % of control.

And the T/C (dose: 100.0 mg/kg/injection, schedule: Q01DX011 (oral), vehicle: water)?
The T/C was 156 % of control and 175 % of control.

And the T/C (dose: 125.0 mg/kg/injection, schedule: Q01DX015 (ip), vehicle: saline)?
The T/C was 314 % of control.

What about the T/C (dose: 150.0 mg/kg/injection, schedule: Q01DX001 (ip), vehicle: water) of the same compound?
Its T/C is 114 % of control.

What about the T/C (dose: 150.0 mg/kg/injection, schedule: Q01DX001 (sc), vehicle: water) of the same compound?
Its T/C is 150 % of control.

And the T/C (dose: 150.0 mg/kg/injection, schedule: Q01DX005 (oral), vehicle: water)?
The T/C was 112 % of control.

What about the T/C (dose: 150.0 mg/kg/injection, schedule: Q## X003 (oral), vehicle: water) of the same compound?
The T/C was 120 % of control.

And the T/C (dose: 150.0 mg/kg/injection, schedule: Q## X024 (oral), vehicle: water)?
The T/C was 104 % of control and 113 % of control.

What about the T/C (dose: 200.0 mg/kg/injection, schedule: Q01DX005 (ip), vehicle: saline) of the same compound?
Its T/C is 190 % of control and 198 % of control.

What about the T/C (dose: 200.0 mg/kg/injection, schedule: Q01DX009 (ip), vehicle: saline) of the same compound?
The T/C was 109 % of control.

And the T/C (dose: 200.0 mg/kg/injection, schedule: Q01DX009 (ip), vehicle: water)?
The T/C was 88 % of control.

What about the T/C (dose: 200.0 mg/kg/injection, schedule: Q01DX009 (sc), vehicle: water) of the same compound?
The T/C was 95 % of control.

What about the T/C (dose: 200.0 mg/kg/injection, schedule: Q01DX011 (oral), vehicle: water) of the same compound?
Its T/C is 201 % of control.

What about the T/C (dose: 250.0 mg/kg/injection, schedule: Q01DX001 (ip), vehicle: saline) of the same compound?
Its T/C is 116 % of control.

What about the T/C (dose: 250.0 mg/kg/injection, schedule: Q01DX015 (ip), vehicle: saline) of the same compound?
The T/C was 86 % of control.

And the T/C (dose: 300.0 mg/kg/injection, schedule: Q01DX001 (ip), vehicle: water)?
The T/C was 118 % of control.

And the T/C (dose: 300.0 mg/kg/injection, schedule: Q01DX001 (oral), vehicle: water)?
The T/C was 103 % of control and 108 % of control.

What about the T/C (dose: 300.0 mg/kg/injection, schedule: Q01DX005 (oral), vehicle: water) of the same compound?
The T/C was 184 % of control.

And the T/C (dose: 300.0 mg/kg/injection, schedule: Q01DX009 (oral), vehicle: water)?
Its T/C is 167 % of control.

What about the T/C (dose: 300.0 mg/kg/injection, schedule: Q07DX004 (oral), vehicle: water) of the same compound?
The T/C was 103 % of control.

And the T/C (dose: 300.0 mg/kg/injection, schedule: Q## X006 (oral), vehicle: water)?
Its T/C is 108 % of control.

What about the T/C (dose: 300.0 mg/kg/injection, schedule: Q## X008 (oral), vehicle: water) of the same compound?
Its T/C is 112 % of control.

And the T/C (dose: 300.0 mg/kg/injection, schedule: Q## X024 (oral), vehicle: water)?
The T/C was 113 % of control.

What about the T/C (dose: 400.0 mg/kg/injection, schedule: Q01DX011 (oral), vehicle: water) of the same compound?
Its T/C is 179 % of control.

And the T/C (dose: 600.0 mg/kg/injection, schedule: Q01DX001 (oral), vehicle: water)?
The T/C was 108 % of control and 114 % of control.

What about the T/C (dose: 600.0 mg/kg/injection, schedule: Q01DX005 (oral), vehicle: water) of the same compound?
Its T/C is 153 % of control.

And the T/C (dose: 600.0 mg/kg/injection, schedule: Q01DX009 (oral), vehicle: water)?
Its T/C is 185 % of control.

And the T/C (dose: 600.0 mg/kg/injection, schedule: Q07DX004 (oral), vehicle: water)?
Its T/C is 107 % of control.

What about the T/C (dose: 600.0 mg/kg/injection, schedule: Q## X003 (oral), vehicle: water) of the same compound?
The T/C was 153 % of control.

What about the T/C (dose: 600.0 mg/kg/injection, schedule: Q## X006 (oral), vehicle: water) of the same compound?
The T/C was 114 % of control.

What about the T/C (dose: 600.0 mg/kg/injection, schedule: Q## X024 (oral), vehicle: water) of the same compound?
The T/C was 120 % of control.

What about the T/C (dose: 660.0 mg/kg/injection, schedule: Q04DX003 (ip), vehicle: carboxymethylcellulose (CMC)) of the same compound?
Its T/C is 214 % of control.

And the T/C (dose: 800.0 mg/kg/injection, schedule: Q01DX011 (oral), vehicle: water)?
The T/C was 121 % of control.

What about the T/C (dose: 1000.0 mg/kg/injection, schedule: Q01DX001 (ip), vehicle: saline) of the same compound?
The T/C was 164 % of control.

And the T/C (dose: 1099.0 mg/kg/injection, schedule: Q01DX001 (ip), vehicle: carboxymethylcellulose (CMC))?
The T/C was 160 % of control.

What about the T/C (dose: 1099.0 mg/kg/injection, schedule: Q04DX003 (ip), vehicle: carboxymethylcellulose (CMC)) of the same compound?
Its T/C is 244 % of control.

And the T/C (dose: 1200.0 mg/kg/injection, schedule: Q01DX001 (oral), vehicle: water)?
Its T/C is 115 % of control and 121 % of control.

What about the T/C (dose: 1200.0 mg/kg/injection, schedule: Q01DX005 (oral), vehicle: water) of the same compound?
Its T/C is 153 % of control and 180 % of control.

And the T/C (dose: 1200.0 mg/kg/injection, schedule: Q01DX015 (oral), vehicle: carboxymethylcellulose (CMC))?
Its T/C is 100 % of control.

What about the T/C (dose: 1200.0 mg/kg/injection, schedule: Q07DX004 (oral), vehicle: water) of the same compound?
The T/C was 119 % of control.

What about the T/C (dose: 1200.0 mg/kg/injection, schedule: Q## X003 (oral), vehicle: water) of the same compound?
The T/C was 185 % of control.

What about the T/C (dose: 1832.0 mg/kg/injection, schedule: Q01DX001 (ip), vehicle: carboxymethylcellulose (CMC)) of the same compound?
The T/C was 156 % of control.

And the T/C (dose: 1832.0 mg/kg/injection, schedule: Q04DX003 (ip), vehicle: carboxymethylcellulose (CMC))?
Its T/C is 228 % of control.

What about the T/C (dose: 2400.0 mg/kg/injection, schedule: Q01DX001 (oral), vehicle: water) of the same compound?
Its T/C is 109 % of control.

And the T/C (dose: 2400.0 mg/kg/injection, schedule: Q07DX004 (oral), vehicle: water)?
The T/C was 123 % of control.

What about the T/C (dose: 2400.0 mg/kg/injection, schedule: Q## X003 (oral), vehicle: water) of the same compound?
Its T/C is 189 % of control.

And the T/C (dose: 2400.0 mg/kg/injection, schedule: Q## X006 (oral), vehicle: water)?
The T/C was 181 % of control.

What does the source list for `NC(=Nc1ccc(N)cc1)c1ccc(C(N)=Nc2ccc(N)cc2)cc1`?
T/C (dose: 2.5 mg/kg/injection, schedule: Q01DX015 (ip), vehicle: water): 98 % of control; T/C (dose: 5.0 mg/kg/injection, schedule: Q01DX015 (ip), vehicle: water): 100 % of control; T/C (dose: 10.0 mg/kg/injection, schedule: Q01DX015 (ip), vehicle: water): 114 % of control; T/C (dose: 20.0 mg/kg/injection, schedule: Q01DX015 (ip), vehicle: water): 100 % of control; T/C (dose: 36.7 mg/kg/injection, schedule: Q01DX015 (ip), vehicle: water): 109 % of control; T/C (dose: 73.5 mg/kg/injection, schedule: Q01DX015 (ip), vehicle: water): 105 % of control

What does the source list for `CC1CC(C)(C)OB(OC(C)CC(C)(C)OB2OC(C)CC(C)(C)O2)O1` (stereo not drawn)?
T/C (dose: 50.0 mg/kg/injection, schedule: Q01DX001 (ip), vehicle: saline): 102 % of control; T/C (dose: 100.0 mg/kg/injection, schedule: Q01DX001 (ip), vehicle: saline): 107 % of control; T/C (dose: 200.0 mg/kg/injection, schedule: Q01DX001 (ip), vehicle: saline): 96 % of control; T/C (dose: 400.0 mg/kg/injection, schedule: Q01DX001 (ip), vehicle: saline): 107 % of control
